Data taken from patent publication US20060270862A1, “Analogs of discodermolide and dictyostatin-1, intermediates therefor and methods of synthesis thereof” (priority 2002, published 2006).
Read-outs that look alike come from different tables or passages of the source.

What was measured:
[1] = ester bond, 2,4,6-trichlorobenzoyl chloride / Et3N / DMAP, toluene, 25.0 °C, 16.0 h
[2] = test system: paclitaxel binding site on tubulin; assay: Paclitaxel binding site inhibition assay ([3H]paclitaxel displacement from microtubules); design: species or system bovine; conditions: for Displacement of [3H]paclitaxel (%): 4 μM test agent, 2 μM [3H]paclitaxel, microtubules from 2 μM tubulin and 20 μM dideoxyGTP
Description: (§1) General. Tubulin without microtubule-associated proteins was prepared from fresh bovine brains[32] The normoisotopic and tritiated forms of paclitaxel and normoisotopic docetaxel were provided by the Drug Synthesis and Chemistry Branch, National Cancer Institute. (+)-Discodermolide was from Novartis Pharmaceutical Corporation. Ca^2+- and Mg^2+-free RPMI-1640 culture medium were from GIBCO/BRL-Life Technologies. Fetal bovine serum (FBS) was from Hyclone. Cell lines were obtained from American Type Culture Collection (Manassas, Va.).
Paclitaxel binding site inhibition assay. A stock solution of [^3H]paclitaxel (26.8 μM, 16.2 Ci/mmol), obtained from the NCI, was prepared in 37% (v/v) DMSO. The test agents were prepared in 25% (v/v) DMSO-0.75 M monosodium glutamate (prepared from a 2M stock solution adjusted to pH 6.6 with HCl). The radiolabeled paclitaxel and test agents, as indicated in terms of final concentrations, were mixed in equal volumes and warmed to 37° C. A reaction mixture (50 μL) containing 0.75 M monosodium glutamate, 4.0 μM tubulin, and 40 μM ddGTP (a non-hydrolyzable analog of GTP) was prepared and incubated at 37° C. for 30 min to preform microtubules. An equivalent volume of drug mixture with [^3H]paclitaxel was added to preformed polymer and incubated for 30 min at 37° C. Bound [^3H]paclitaxel was separated from free drug by centrifugation of the reaction mixtures at 14000 rpm for 20 min at room temperature. Non-specific binding was determined by addition of a 12-fold excess of docetaxel. Radioactive counts from the supernatant (50 μL) were determined by scintillation spectrometry. Bound [^3H]paclitaxel was calculated from the following: total paclitaxel added to each reaction mixture minus the paclitaxel present in the supernatant (free drug). The % bound values were normalized to the control values with no inhibitor added.

MDA-MB231 (breast) = assay: Cell growth inhibition (MTS), MDA-MB231; format: cell-based, human
Description: (§2) Cell Growth Inhibition[34] Cells were plated (500-2000 cells/well depending on the cell line) in 96-well microplates, allowed to attach and grow for 48 h, then treated with vehicle (4% DMSO, a concentration that allowed doubling times of 24 h or less) or test agent (50, 10, 2, 0.4 and 0.08 μM for the new agents; 0.001, 0.005, 0.010, 0.020 and 0.100 μM for paclitaxel and discodermolide) for the given times. One plate consisted of cells from each line used for a time zero cell number determination. The other plates in a given determination contained eight wells of control cells, eight wells of medium and each agent concentration tested in quadruplicate. Cell numbers were obtained spectrophotometrically (absorbance at 490 nm minus that at 630 nm) in a Dynamax plate reader after treatment with 3-(4,5-dimethylthiazol-2-yl)-5-(3-carboxymethoxyphenyl)-2-(4-sulfophenyl)-2H-tetrazolium (MTS) using phenazine methanesulfonate as the electron acceptor. After initial screening with the above 5-fold dilutions, fifty percent growth inhibitory concentration (GI50) values were determined for each agent by repeating the screen using 2-fold dilutions (five concentrations) centered on the initial estimated GI50 concentration, again in quadruplicate.

tubulin = format: biochemical, bovine; conditions: for MT stabilizing activity (%): tubulin assembly induced by test agent at 10 μM vs. 10 μM paclitaxel (100%), single determinations at 30° C.; for properties of the induced polymer: speed of induction, resistance to cold-induced disassembly (in words): FIGS. 6A, 6C, 6D, analogs at somewhat lower potencies than discodermolide; for microtubule hypernucleation activity (in words): comparison with analog 40, FIGS. 6A-D and Table 1
Description: as §1
Tubulin Polymerization[32] Tubulin assembly was followed in a Beckman-Coulter 7400 spectrophotometer, equipped with an electronic Peltier temperature controller, reading absorbance (turbidity) at 350 nm. Reaction mixtures (0.25 mL final volume) contained tubulin (final concentration 10 μM; 1 mg/mL), monosodium glutamate (0.8 M from a stock solution adjusted to pH 6.6 with HCl), DMSO (final volume 4% v/v), and differing concentrations of test agent where indicated. Reaction mixtures without test agent were cooled to 0° C. and added to cuvettes held at 0.25-0.5° C. in the spectrophotometer. Test agent in DMSO was then rapidly mixed in the reaction mixture. Each run contained one positive control (paclitaxel, 10 μM final concentration) and one negative control (DMSO only). Baselines were established at 0.25-2.5° C. and temperature was rapidly raised to 30° C. (in approximately 1 min) and held there for 20 min.

2008 (ovarian) = assay: Cell growth inhibition (MTS), 2008; format: cell-based, human
Description: as §2

PC3 (prostate) = assay: Cell growth inhibition (MTS), PC3; format: cell-based; conditions: Homo sapiens, 72 h, read-out: GI50 PC3 (prostate)
Description: as §2

[3] = Homo sapiens, MDA-MB-231, 48 h, read-out: GI50 MDA-MB-231 (breast)
[4] = Homo sapiens, MDA-MB-231, read-out: 50% growth inhibitory concentration
[5] = Homo sapiens, 48 h, read-out: GI50 2008 (ovary)
[6] = Table 2, applies to both human cancer cell lines, breast (MDA-MB-231) and ovarian (2008), read-out: 50% growth inhibitory concentration

## C=C/C=C\[C@H](C)[C@@H]1OC(=O)/C=C\C=C\[C@@H](C)[C@@H](O[Si](C)(C)C(C)(C)C)C[C@H](O[Si](C)(C)C(C)(C)C)/C=C\[C@H](C)[C@H](O)[C@@H](C)C[C@@H](C)CCC(O[Si](C)(C)C(C)(C)C)[C@@H]1C (stereo partly shown)
[1]; from C=C/C=C\[C@H](C)[C@H](O)[C@@H](C)C(CC[C@H](C)C[C@H](C)[C@@H](O)[C@@H](C)/C=C\[C@H](C[C@H](O[Si](C)(C)C(C)(C)C)[C@H](C)/C=C/C=C\C(=O)O)O[Si](C)(C)C(C)(C)C)O[Si](C)(C)C(C)(C)C, 1.77 mM, 2 steps
  ring closure, yield of all isomers: 49%

## C=C/C=C\[C@H](C)[C@H]1OC(=O)/C=C\C=C\[C@@H](C)[C@H](OCc2ccc(OC)cc2)CC/C=C\[C@H](C)[C@H](OCc2ccc(OC)cc2)[C@@H](C)/C=C\CC[C@@H](OCc2ccc(OC)cc2)[C@H]1C
[1]; from C=C/C=C\[C@H](C)[C@@H](O)[C@H](C)[C@@H](CC/C=C\[C@H](C)[C@@H](OCc1ccc(OC)cc1)[C@@H](C)/C=C\CC[C@@H](OCc1ccc(OC)cc1)[C@H](C)/C=C/C=C\C(=O)O)OCc1ccc(OC)cc1, 2 steps
  ring closure, yield of all isomers: 79%

## C=C/C=C\[C@H](C)[C@H]1OC(=O)CCCCCCCC/C=C\[C@H](C)[C@H](OCc2ccc(OC)cc2)[C@@H](C)/C=C\CC[C@@H](OCc2ccc(OC)cc2)[C@H]1C
[1]; from C=C/C=C\[C@H](C)[C@@H](O)[C@H](C)[C@@H](CC/C=C\[C@H](C)[C@@H](OCc1ccc(OC)cc1)[C@@H](C)/C=C\CCCCCCCCC(=O)O)OCc1ccc(OC)cc1, 1.93 mM
  ring closure, yield of all isomers: 57%

## C=C/C=C\[C@H](C)[C@H](OC(N)=O)[C@@H](C)[C@H](O)CC/C=C\[C@H](C)[C@H](O)[C@@H](C)/C=C\CC[C@@H]1OC(=O)[C@H](C)[C@@H](O)[C@@H]1C [Compound 40, Carbamic acid, (1S,2S,3R,6Z,8S,9S,10S,11Z)-3,9-dihydroxy-14-[(2S,3S,4S,5R)-4-hydroxy-3,5-dimethyl-6-oxotetrahydropyran-2-yl]-2,8,10-trimethyl-1-[(1S,2Z)-1-methylpenta-2,4-dienyl]tetradeca-6,11-dienyl ester]
[2]
  Displacement of [3H]paclitaxel (%): 21 ± 1%
MDA-MB231 (breast); Homo sapiens, MDA-MB-231, 72 h, read-out: GI50 MDA-MB231 (breast)
  GI50: 2.1 ± 1.8 µM
tubulin
  MT stabilizing activity (%): 11%
2008 (ovarian); Homo sapiens, 72 h, read-out: GI50 2008 (ovarian)
  GI50: 5.2 ± 1 µM
PC3 (prostate)
  GI50: 7.5 ± 2 µM

## C=C/C=C\[C@H](C)[C@H](OC(N)=O)[C@@H](C)[C@H](O)CC/C=C\[C@H](C)[C@H](O)[C@@H](C)/C=C\CC[C@@H]1OC(=O)[C@H](C)[C@@H](OCOC)[C@H]1C [Compound 41]
[2]
  affinity for the paclitaxel binding site on tubulin (in words): considerable affinity
  Displacement of [3H]paclitaxel (%): 57 ± 2%
[2]; 2-fold molar excess of test agent
  displacement of [3H]paclitaxel from microtubules, comparison (in words): better than paclitaxel and at almost the same potency as discodermolide
MDA-MB231 (breast); cellular activity, cell line not given
  50% growth inhibitory (GI50) concentration (in words): submicromolar
tubulin
  properties of the induced polymer: speed of induction, resistance to cold-induced disassembly (in words): more rapid polymer-inducing and cold-resistant properties
  microtubule hypernucleation activity (in words): better microtubule hypernucleation activities than the analog 40
  MT stabilizing activity (%): 27%

## C=C/C=C\[C@H](C)[C@H](OC(N)=O)[C@@H](C)[C@H](O)CC/C=C\[C@H](C)[C@H](O)[C@@H](C)/C=C\CC[C@@H]1O[C@@H](OC)[C@H](C)[C@@H](OCOC)[C@H]1C [Compound 42, Carbamic acid, (1S,2S,3R,6Z,8S,9S,1S,11Z)-3,9-dihydroxy-14-[(2S,3S,4S,5R,6R)-6-methoxy-4-methoxymethoxy-3,5-dimethyltetrahydropyran-2-yl]-2,8,10-trimethyl-1-[(1S,2Z)-1-methylpenta-2,4-dienyl]tetradeca-6,11-dienyl ester]
[2]
  Displacement of [3H]paclitaxel (%): 19 ± 2%
tubulin
  properties of the induced polymer: speed of induction, resistance to cold-induced disassembly (in words): more rapid polymer-inducing and cold-resistant properties
  microtubule hypernucleation activity (in words): better microtubule hypernucleation activities than the analog 40
  MT stabilizing activity (%): 11%

## C=CC=C[C@H](C)[C@H]1OC(=O)CCCCCCCCC=C[C@H](C)[C@H](O)[C@@H](C)C=CCC[C@@H](O)[C@H]1C [Compound 43, (1S,13S,14S,15S,20R,21R,22R)-14,20-Dihydroxy-13,15,21-trimethyl-22-(1-methylpenta-2,4-dienyl)-oxacyclodocosa-11,16-dien-2-one]
[2]; N = 6, means ± SD
  Displacement of [3H]paclitaxel (%): 18 ± 5%
MDA-MB231 (breast); [3]
  GI50: 27 ± 1 µM
MDA-MB231 (breast); [4]
  IC50: 15 to 30 µM
2008 (ovarian); [5]
  GI50: 16 ± 1 µM

## C=CC=C[C@H](C)[C@@H](O)[C@H](C)[C@H](O)CCC=C[C@H](C)[C@@H](O)[C@@H](C)C=CCCCCCCCCCO [Compound 47, (12S,13S,14S,19R,20R,21R,22S)-12,14,20,22-Tetramethylhexacosa-10,15,23,25-tetraene-1,13,19,21-tetraol]
[2]; N = 6, means ± SD
  Displacement of [3H]paclitaxel (%): 21 ± 2%
MDA-MB231 (breast); [3]
  GI50: 18 ± 1 µM
MDA-MB231 (breast); [4]
  IC50: 15 to 30 µM
2008 (ovarian); [5]
  GI50: 22 ± 5 µM

## C=CC=C[C@H](C)[C@@H](O)[C@H](C)[C@H](O)CCC=C[C@H](C)[C@@H](O)[C@@H](C)C=CCCCCCCCCC(=O)OC [Compound 48, (12S,13S,14S,19R,20R,21R,22S)-13,19,21-Trihydroxy-12,14,20,22-tetramethylhexacosa-10,15,23,25-tetraenoic acid methyl ester]
[2]; N = 6, means ± SD
  Displacement of [3H]paclitaxel (%): 17 ± 1%
MDA-MB231 (breast); [3]
  GI50: 26 ± 3 µM
MDA-MB231 (breast); [4]
  IC50: 15 to 30 µM
2008 (ovarian); [5]
  GI50: 19 ± 2 µM

## C=CC=C[C@H](C)[C@@H](O)[C@H](C)[C@H](O)CCC=C[C@H](C)[C@@H](O)[C@@H](C)C=CCCCCCCCCC(=O)O [Compound 49, (12S,13S,14S,19R,20R,21R,22S)-13,19,21-Trihydroxy-12,14,20,22-tetramethylhexacosa-10,15,23,25-tetraenoic acid]
[2]; N = 6, means ± SD
  Displacement of [3H]paclitaxel (%): 16 ± 3%
MDA-MB231 (breast); Homo sapiens, MDA-MB-231, 48 hours continuous exposure, mean ± SD, N = 4, read-out: GI50 MDA-MB-231 (breast)
  GI50: > 50 µM
MDA-MB231 (breast); [6]
  IC50: > 50 µM
2008 (ovarian); Homo sapiens, 48 hours continuous exposure, mean ± SD, N = 4, read-out: GI50 2008 (ovary)
  GI50: > 50 µM

## C=CC=CC(C)[C@H]1OC(=O)C=CC=C[C@@H](C)[C@H](O)CCC=C[C@H](C)[C@H](O)[C@@H](C)C=CCC[C@@H](O)[C@H]1C (stereo partly drawn) [Compound 54, (7R,8R,13S,14S,15S,20R,21R,22R,23S)-8,14,20-Trihydroxy-7,13,15,21-tetramethyl-22-(1-methylpenta-2,4-dienyl)-oxacyclodocosa-3,5,11,16-tetraen-2-one]
[2]; N = 6, means ± SD
  Displacement of [3H]paclitaxel (%): 27 ± 8%
[2]; [3H]paclitaxel stoichiometrically bound to microtubules
  potency of [3H]paclitaxel displacement relative to discodermolide: about ⅓
MDA-MB231 (breast); 72 hours continuous exposure (footnote b), mean ± SD, N = 4, read-out: GI50 MDA-MB-231 (breast)
  GI50: 1.4 ± 0.1 µM
MDA-MB231 (breast); [6]
  IC50: ~1 µM
2008 (ovarian); 72 hours continuous exposure (footnote b), mean ± SD, N = 4, read-out: GI50 2008 (ovary)
  GI50: 1 ± 0.1 µM
